Experimental findings from patent publication US6369093B1, “Pyrazole carboxanilide fungicide” (Bayer Aktiengesellschaft, priority 1998, dated 2002) are described below.

One data set deals with Podosphaera leucotricha. The data set is described as follows: Podosphaera test (apple)/protective. It counts as in vivo. The following applies: apple plants, protective spray, application rate 100 g/ha, evaluation 10 days after inoculation. As to the method: (§1) [table] To produce a suitable preparation of active compound, 1 part by weight of active compound is mixed with the stated amounts of solvent and emulsifier, and the concentrate is diluted with water to the desired concentration. To test for protective activity, young plants are sprayed with the preparation of active compound at the stated application rate. After the spray coating has dried on, the plants are inoculated with an aqueous spore suspension of the causative organism of apple mildew Podosphaera leucotricha. The plants are then placed in a greenhouse at about 23° C. and a relative atmospheric humidity of about 70%. Evaluation is carried out 10 days after the inoculation. 0% means an efficacy which corresponds to that of the control, whereas an efficacy of 100% means that no infection is observed.

A further data set relates to Sphaerotheca fuliginea. Briefly: Sphaerotheca test (cucumber)/protective. It counts as in vivo. The settings on record: cucumber plants, protective spray, application rate 100 g/ha, evaluation 10 days after inoculation. How it is done: as §1, with “Afier” for “After”, “Sphaerotheca fuliginea.” for “the causative organism of apple mildew Podosphaera leucotricha.”, “placed” for “placed in a greenhouse”, “70% in a greenhouse.” for “70%.”

In a further data set the test system is Venturia inaequalis. The data set is described as follows: Venturia test (apple)/protective. Format: in vivo. The following applies: apple plants, protective spray, application rate 100 g/ha, evaluation 12 days after inoculation. As to the method:
To produce a suitable preparation of active compound, 1 part by weight of active compound is mixed with the stated amounts of solvent and emulsifier, and the concentrate is diluted with water to the desired concentration.
To test for protective activity, young plants are sprayed with the preparation of active compound at the stated application rate. After the spray coating has dried on, the plants are inoculated with an aqueous conidia suspension of the causative organism of apple scab Venturia inaequalis and then remain in an incubation cabin at 20° C. and 100% relative atmospheric humidity for 1 day.
The plants are then placed in a greenhouse at about 21° C. and a relative atmospheric humidity of about 90%.
Evaluation is carried out 12 days after the inoculation. 0% means an efficacy which corresponds to that of the control, whereas an efficacy of 100% means that no infection is observed.

The test system of data set [1] is Erysiphe graminis f. sp. hordei. The data set is described as follows: Erysiphe test (barley)/protective. It counts as in vivo. The settings on record: barley plants, protective spray, application rate 750 g/ha, evaluation 7 days after inoculation. How it is done: Erysiphe test (barley)/protective [table] To produce a suitable preparation of active compound, 1 part by weight of active compound is mixed with the stated amounts of solvent and emulsifier, and the concentrate is diluted with water to the desired concentration. To test for protective activity, young cereal plants are sprayed with the preparation of active compound at the stated application rate. 1 day after the treatment, the plants are inoculated with spores of Erysiphe graminis f. sp. hordei. The plants are then placed in a greenhouse at 70% relative atmospheric humidity and a temperature of 18° C. Evaluation is carried out 7 days after the inoculation. 0% means an efficacy which corresponds to that of the control, whereas an efficacy of 100% means that no infection is observed.

The subject of a further data set is Pyrenophora teres. The data set is described as follows: Pyrenophora teres test (barley)/protective. It counts as in vivo. The following applies: barley plants, protective spray, application rate 250 g/ha, evaluation 7 days after inoculation. How it is done: [table] To produce a suitable preparation of active compound, 1 part by weight of active compound is mixed with the stated amounts of solvent and emulsifier, and the concentrate is diluted with water to the desired concentration. To test for protective activity, young plants are sprayed with the preparation of active compound at the stated application rate. After the spray coating has dried on, the plants are sprayed with a conidia suspension of Pyrenophora teres. The plants remain in an incubation cabin at 20° C. and 100% relative atmospheric humidity for 48 hours. The plants are then placed in a greenhouse at a temperature of about 20° C. and a relative atmospheric humidity of about 80%. Evaluation is carried out 7 days after the inoculation. 0% means an efficacy which corresponds to that of the control, whereas an efficacy of 100% means that no infection is observed.

On to `Cc1nn(C)c(F)c1C(=O)Nc1ccccc1-c1ccc(Br)cc1` [Example 1, N-[2-(4-bromophcnyl)]-1,3-dimethyl-5-fluoro-pyrazole-4-carboxanilide], for which the melting point (in general, the temperature of the solid-liquid transition) is 127 °C. The compound further came in with an Efficacy in % with Podosphaera leucotricha of 100%. Besides, in the data set on Sphaerotheca fuliginea, the Efficacy in % is 95%. The Efficacy in % in the data set with Venturia inaequalis is given as 100%. Further, the Efficacy in % in data set [1] was found to be 100%. Also, the Efficacy in % in the data set with Pyrenophora teres is 100%.
`Cc1ccccc1-c1ccccc1NC(=O)c1c(C)nn(C)c1F` [Example 2] had a melting point of 100 °C. The compound further had an Efficacy in % in the data set on Podosphaera leucotricha of 96%. Besides, the Efficacy in % in data set [1] amounted to 90%.
`Cc1nn(C)c(F)c1C(=O)Nc1ccccc1-c1ccccc1C(F)(F)F` [Example 4] returned a melting point of 103 °C. The same compound had an Efficacy in % with Podosphaera leucotricha of 97%.
`Cc1nn(C)c(F)c1C(=O)Nc1ccccc1-c1ccccc1F` [Example 5] displayed a melting point of 113 °C. Moreover, the Efficacy in % with Podosphaera leucotricha was determined as 99%.
Consider `Cc1ccc(-c2ccccc2NC(=O)c2c(C)nn(C)c2F)cc1Cl` [Example 8], for which the results for the Efficacy in % in the data set with Podosphaera leucotricha, in the data set on Venturia inaequalis and in the data set on Pyrenophora teres were 98%, 100% and 100%, respectively.
Compound `Cc1nn(C)c(F)c1C(=O)Nc1ccccc1-c1cccc(C(F)(F)F)c1` [Example 9] gave a melting point of 116 °C. Moreover, the Efficacy in % in the data set on Podosphaera leucotricha stood at 100%. Also, the Efficacy in % in the data set on Sphaerotheca fuliginea is given as 94%. The Efficacy in % in the data set with Venturia inaequalis is given as 97%. Further, the Efficacy in % in the data set with Pyrenophora teres came to 100%.
On to `Cc1cccc(NC(=O)c2c(C)nn(C)c2F)c1-c1ccccc1` [Example 16], for which the melting point is 144 °C. Further, the Efficacy in % in data set [1] amounted to 94%.
Take `Cc1cccc(NC(=O)c2c(C)nn(C)c2F)c1-c1ccc(Cl)cc1` [Example 17]: the melting point was 177 °C. The Efficacy in % in data set [1] came to 100%. The compound further had an Efficacy in % in the data set on Pyrenophora teres of 100%.
